Values of other authors as cited in patent US20240199641A1, “QUINAZOLINE-4(3H)-ONE DERIVATIVES AS NEGATIVE ALLOSTERIC MODULATORS OF METABOTROPIC GLUTAMATE RECEPTOR 2” (Vanderbilt University, priority 2021, published 2024).
Read-outs that look alike come from different tables or passages of the source.

What was measured:
[1] = for activity in tail suspension test: Helpless (H) mice
[2] = normal animals
[3] = mice
[4] = normal animals; remark: listed apart in the source
[5] = tested on: central mGlu2 and mGlu3 receptors; settings: in vivo
[6] = C57Bl6/J mice
[7] = olfactory bulbectomized rats, repeated administration for 14 days
[8] = CFS model
[9] = treatment for 7 days
[10] = social isolation reared mice

## CCCCCCCOC(=O)[C@@]1(F)[C@@H]2C[C@@H](OCc3ccc(Cl)c(Cl)c3)[C@@](N)(C(=O)O)[C@@H]21 [BCI-838]
Group II mGlu receptors; once-daily oral dosing
  duration of inhibition of group II mGlu receptors by brain concentration of active metabolite BCI-632: 22 h
Group II mGlu receptors; three months of treatment
  Dutch APP transgene-associated learning and memory impairment: reversed
  anxiolytic effects: anxiolytic effects
Group II mGlu receptors; three months of treatment, two AD mouse models
  levels of monomeric and oAβ peptides in hippocampus and cortex: decreased
Group II mGlu receptors; wild-type and Alzheimer's diseased mice, 3 months
  hippocampal progenitor cell proliferation: stimulated

## N[C@](CC1c2ccccc2Oc2ccccc21)(C(=O)O)[C@H]1C[C@@H]1C(=O)O [LY341495]
[1]
  activity in tail suspension test: active
[1]; acute administration
  antidepressant effect in helpless mice: potent antidepressant effect
[2]
  antidepressant-like effects in rat FST: Antidepressant-like effects
[3]
  marble-burying behavior: significantly reduce
[4]
  antidepressant-like effects in mouse TST: Antidepressant-like effects
[5]
  hypolocomotor effect of mGlu2/3 agonist LY379268: achieved the same result
[6]
  immobility time in FST: dose-dependently reduced

## N[C@]1(C(=O)O)[C@H]2[C@@H](C[C@H]1OCc1ccc(Cl)c(Cl)c1)[C@]2(F)C(=O)O [MGS0039]
[7]
  hyperactivity in the open field test: attenuated
  learning deficit in the passive avoidance test: attenuated
[2]
  antidepressant-like effects in rat FST: Antidepressant-like effects
[3]
  marble-burying behavior: reduced
  spontaneous locomotor activity: no significant change
[4]
  antidepressant-like effects in mouse TST: Antidepressant-like effects
[8]
  freezing behavior: significantly decreased
[9]
  number of escape failures: significantly reduced
[10]
  increased immobility in FST: reversed

## Cc1cc(-c2cccc(C3=Nc4cc(C)c(C(F)(F)F)cc4NC(=O)C3)c2)cc(C)n1 [RO4491533]
[1]
  activity in tail suspension test: active
[5]
  hypolocomotor effect of mGlu2/3 agonist LY379268: reversed
[6]
  immobility time in FST: dose-dependently reduced

## CN1C(=O)CN=C(c2ccccc2)c2cc(Cl)ccc21 [diazepam]
[8]
  freezing behavior: significantly decreased

## CNCCC(Oc1ccc(C(F)(F)F)cc1)c1ccccc1 (centres unmarked) [fluoxetine]
[1]; chronic (21 days) treatment
  antidepressant effect in helpless mice: full antidepressant effect
